# From patent US20220133837A1, “PEPTIDE INHIBITORS OF NF KAPPA B AND USE THEREOF IN TREATMENT OF COVID-19 AND INFLAMMATORY DISEASES” (priority 2020, published 2022)
# Like-named read-outs stand apart in the source and are kept apart here. Non-standard residues stand in square brackets, D forms with d. Residues, ends and D or L forms follow the SMILES beside them. No end group written: not given here.
# Legend:
# ACE2 receptor = assay type: cell-based, human; settings: control cells set at 1.000, cells harvested after 24 hours
# TMPRSS2 = assay type: cell-based, human; settings: control cells set at 1.000, cells harvested after 24 hours
# NFKB1 = assay type: cell-based, human; settings: control cells set at 1.000, cells harvested after 24 hours
# NFKB2 = assay type: cell-based, human; settings: control cells set at 1.000, cells harvested after 24 hours
# TNF = assay type: cell-based, human; settings: control cells set at 1.000, cells harvested after 24 hours
# TNFRSF1A = assay type: cell-based, human; settings: control cells set at 1.000, cells harvested after 24 hours
# TNFRSF9 = assay type: cell-based, human; settings: control cells set at 1.000, cells harvested after 24 hours
# ILIA = assay type: cell-based, human; settings: control cells set at 1.000, cells harvested after 24 hours
# IL1B = assay type: cell-based, human; settings: control cells set at 1.000, cells harvested after 24 hours
# IL6 = assay type: cell-based, human; settings: control cells set at 1.000, cells harvested after 24 hours
# CCL2 = assay type: cell-based, human; settings: control cells set at 1.000, cells harvested after 24 hours
# CCL5 = assay type: cell-based, human; settings: control cells set at 1.000, cells harvested after 24 hours
# CXCL8 = assay type: cell-based, human; settings: control cells set at 1.000, cells harvested after 24 hours
# [1] = test system: carrageenan (CAR) induced inflammation model; test: Carrageenan (CAR) induced paw edema model; assay type: in vivo; settings: rat, peptide 70 ng, 1 nanomole injected 30 minutes after CAR; for Edema, change in paw volume after CAR injection: sub-plantar CAR 100 μL of 1% suspension, plethysmometer hourly for 24 h, versus control animals
# From the text: The anti-inflammatory activity of YMAP[D]EV (SEQ ID NO:116) was also examined in a classical carrageenan (CAR) induced inflammation model (Ivan G. Otterness, Peter F. Moore, Carrageenan foot edema test, Methods in Enzymology, Academic Press, Volume 162, 1988, Pages 320-327, (see URL www.sciencedirect.com/science/article/pii/0076687988620866); Fehrenbacher J C et al., Models of inflammation: Carrageenan- or complete Freund's Adjuvant (CFA)-induced edema and hypersensitivity in the rat. Curr Protoc Pharmacol. 2012 March; Chapter 5m Unit5.4, doi:10.1002/0471141755.ph0504s56. PMID: 22382999; PMCID: PMC4683998.). Paw edema was induced by a sub-plantar injection of CAR (100 μL of a 1% suspension in 0.85% saline). In the treatment group, YMAP[D]EV (SEQ ID NO:116) (70 ng, 1 nanomole) was injected 30 minutes after CAR injection. Changes in paw volume were measured using a plethysmometer immediately before CAR injection, and then at hourly intervals for 24 h. Edema was expressed as change in paw volume (mL) after CAR injection relative to the pre-injection value for each rat.
compound,measurement,setting,value
"ANVAENA [PEP1, L-alanyl-L-asparaginyl-L-valyl-L-alanyl-L-glutamyl-L-asparaginyl-L-alanine]","ACE2 receptor RNA expression, ratio of treated cells to control cells",ACE2 receptor; Affymetrix gene arrays,0.632
same,"TMPRSS2 RNA expression, ratio of treated cells to control cells",TMPRSS2; Affymetrix gene arrays,0.525
same,"NFKB1 RNA expression, ratio of treated cells to control cells",NFKB1; Affymetrix gene arrays,0.927
same,"NFKB2 RNA expression, ratio of treated cells to control cells",NFKB2; Affymetrix gene arrays,0.851
same,"TNF RNA expression, ratio of treated cells to control cells",TNF; Affymetrix gene arrays,0.349
same,"TNFRSF1A RNA expression, ratio of treated cells to control cells",TNFRSF1A; Affymetrix gene arrays,1.415
same,"TNFRSF9 RNA expression, ratio of treated cells to control cells",TNFRSF9; Affymetrix gene arrays,1.136
same,"ILIA RNA expression, ratio of treated cells to control cells",ILIA; Affymetrix gene arrays,0.036
same,"IL1B RNA expression, ratio of treated cells to control cells",IL1B; Affymetrix gene arrays,0.691
same,"IL6 RNA expression, ratio of treated cells to control cells",IL6; Affymetrix gene arrays,1.135
same,"CCL2 RNA expression, ratio of treated cells to control cells",CCL2; Affymetrix gene arrays,1.298
same,"CCL5 RNA expression, ratio of treated cells to control cells",CCL5; Affymetrix gene arrays,0.456
same,"CXCL8 RNA expression, ratio of treated cells to control cells",CXCL8; Affymetrix gene arrays,1.135
same,"Edema, change in paw volume after CAR injection",[1],nearly identical data
"CSCC[C@H](NC(=O)[C@@H](N)Cc1ccc(O)cc1)C(=O)N[C@@H](C)C(=O)N1CCC[C@H]1C(=O)N[C@H](CCC(=O)O)C(=O)N[C@H](C(=O)O)C(C)C [PEP2, L-tyrosyl-L-methionyl-L-alanyl-L-prolyl-D-glutamyl-L-valine] (H-YMAP[dE]V-OH)","ACE2 receptor RNA expression, ratio of treated cells to control cells",ACE2 receptor; DriverMap gene analysis,1.000
same,"TMPRSS2 RNA expression, ratio of treated cells to control cells",TMPRSS2; DriverMap gene analysis,1.000
same,"NFKB1 RNA expression, ratio of treated cells to control cells",NFKB1; DriverMap gene analysis,0.243
same,"NFKB2 RNA expression, ratio of treated cells to control cells",NFKB2; DriverMap gene analysis,0.138
same,"TNF RNA expression, ratio of treated cells to control cells",TNF; DriverMap gene analysis,0.015
same,"TNFRSF1A RNA expression, ratio of treated cells to control cells",TNFRSF1A; DriverMap gene analysis,0.752
same,"TNFRSF9 RNA expression, ratio of treated cells to control cells",TNFRSF9; DriverMap gene analysis,0.007
same,"ILIA RNA expression, ratio of treated cells to control cells",ILIA; DriverMap gene analysis,0.260
same,"IL1B RNA expression, ratio of treated cells to control cells",IL1B; DriverMap gene analysis,0.010
same,"IL6 RNA expression, ratio of treated cells to control cells",IL6; DriverMap gene analysis,0.057
same,"CCL2 RNA expression, ratio of treated cells to control cells",CCL2; DriverMap gene analysis,0.059
same,"CCL5 RNA expression, ratio of treated cells to control cells",CCL5; DriverMap gene analysis,0.0003
same,"CXCL8 RNA expression, ratio of treated cells to control cells",CXCL8; DriverMap gene analysis,0.0052
same,Duration of the effect on edema,[1]; 24-hour period of observation,≥ 24 h
same,"Edema, change in paw volume after CAR injection",[1],marked decrease in edema within two hours
